In PubChem BioAssay AID1996:
≈ marks a conversion by molar mass, not a printed value.

settings: buffer; pH 7.4; 200.0 µM

| Structure (SMILES) | solubility kinetic [µg/mL] |
| --- | --- |
| O=C(C1CC1)N1CCN(Cc2ccccc2)CC1 | 33.5 (≈ 137 µM) |
| CSc1ccccc1C(=O)Nc1c(C)cccc1C | 22.9 (≈ 84.4 µM) |
| N#Cc1ccc(OC(=O)c2cnccn2)cc1 | 31.7 (≈ 141 µM) |
| C/C(=N\O)c1ccc(Cl)cc1Cl | 22.9 (≈ 112 µM) |
| Cc1ccc(F)cc1NC(=O)CCc1c(C)[nH]c(=O)c(C#N)c1C | > 49.1 |
| O=S(=O)(Nc1cccc2ccccc12)c1cccs1 | 5.1 (≈ 17.6 µM) |
| CCN(Cc1ccncc1)C(=O)c1cccc(S(=O)(=O)N2CCCCC2)c1 | > 58.1 |
| COc1cccc(NC(=O)c2cnc[nH]2)c1 | 30.5 (≈ 140 µM) |
| O=C(O)COc1ccc(/C=N/O)cc1Br | 41 (≈ 150 µM) |
| CC(C)C(=O)Nc1ccccc1Cc1ccccc1 | 10.7 (≈ 42.2 µM) |
| CC(C)C(NC(=O)c1ccccc1)C(=O)N1CCCCCC1 (stereo not given) | > 45.4 |
| Cc1nc(N)ncc1-c1ccc2c(c1)OCO2 | 10.8 (≈ 47.1 µM) |
| OCCNc1nc2ccccc2n1CC(O)c1ccccc1 (stereo not given) | 40.4 (≈ 136 µM) |
| Cn1cc(CCC(=O)NCc2ccc(Cl)cc2)c2ccccc21 | 2.2 (≈ 6.73 µM) |
| CCCCn1c(O)c(/C=C2\C=Nc3ccccc32)c(=O)[nH]c1=O | 3.1 (≈ 9.96 µM) |
| COc1ccc(CCC(=O)NCCOc2ccc(C)cc2)cc1 | 24 (≈ 76.6 µM) |
| CN(C1CCS(=O)(=O)C1)S(=O)(=O)c1ccccc1 (stereo not given) | > 43.4 |
| CNC(=S)Nc1cccc(C(=O)OC)c1 | > 33.6 |
| CC(C)NC(=O)N1c2ccccc2Sc2ccccc21 | 33.4 (≈ 117 µM) |
| Cc1ccc(NC(=O)CSc2nc(N)cc(=O)[nH]2)cc1S(=O)(=O)N1CCCCC1 | 46.6 (≈ 107 µM) |
| Cc1ccc(OCC(=O)Nc2ccc(NC(=O)c3ccccc3)c(C)c2)cc1 | 1 (≈ 2.67 µM) |
| Cn1c(=O)c2c(ncn2CC(=O)OCCCC(=O)c2ccc(Br)cc2)n(C)c1=O | 28 (≈ 60.4 µM) |
| COc1ccc(OCC(=O)Nc2nc3c(s2)CCCC3)cc1 | 14.3 (≈ 44.9 µM) |
| O=C(NC(=S)Nc1ccccc1N1CCCC1)c1ccco1 | 25.3 (≈ 80.2 µM) |

| Structure (SMILES) | solubility kinetic [µg/mL] |
| --- | --- |
| COC(=O)c1cccc(NC(=O)c2ccc[n+]([O-])c2)c1 | > 40.8 |
| CCn1c(C)c(C(=O)NCCc2ccccc2)c2cc(OC)ccc21 | 23 (≈ 68.4 µM) |
| COc1cc(OC)cc(C(=O)NCCc2ccc(OC)c(OC)c2)c1 | 45.5 (≈ 132 µM) |
| CC(C)N(Cc1cnn(C)c1)Cc1nc(Cc2ccccc2Cl)no1 | > 54 |
| O=C(O)c1ccccc1C(=O)NC1=NN(c2ccccc2)CC1 | > 46.4 |
| O=C(C1CCCN(Cc2ccccc2F)C1)N1CCCC1.O=C(O)C(=O)O (stereo not given) | 43.2 |
| CC1CN(Cc2ccccc2)c2nc3c(c(=O)[nH]c(=O)n3C)n2C1 (stereo not given) | > 48.8 |
| CC(=O)N1CCC(C(=O)Nc2ccc3c(c2)CCC3)CC1 | > 43 |
| Cc1[nH]n(-c2ccccc2)c(=O)c1C=NCC1CCCO1 (stereo not given) | > 42.8 |
| O=C(C1CC(=O)N(c2ccc(F)cc2)C1)N1CCCCCC1 (stereo not given) | > 45.7 |
| Cc1cc(/C=C(/C#N)C(=O)O)c(C)n1-c1cccc2ccccc12 | > 47.5 |
| COc1cccc(NC(=O)c2ccc3c(c2)OCO3)c1 | > 40.7 |
| O=c1cc(C(F)(F)F)nc(SC/C=C/c2ccccc2)[nH]1 | > 46.8 |
| C=CCN1C(=O)c2ccc(C(=O)Nc3ccccn3)cc2C1=O | 8 (≈ 26 µM) |
| N#C/C(=C\c1cccc([N+](=O)[O-])c1)c1ccccn1 | 3.6 (≈ 14.3 µM) |
| O=C(NCc1ccccc1)c1cc2ccc(O)cc2oc1=O | 6.3 (≈ 21.3 µM) |
| O=C(NC1C/C(=N/O)c2cc3c(cc21)OCO3)C(F)(F)F (stereo not given) | 32.3 (≈ 107 µM) |
| COc1ccccc1NC(=O)NCCc1ccccc1 | > 40.5 |
| COc1cccc(CN2C(=O)C(C)Oc3ccccc32)c1 (stereo not given) | 26.5 (≈ 93.5 µM) |
| Cc1ccccc1OCCCC(=O)NC1CCCCC1 | 3.7 (≈ 13.4 µM) |
| Cc1cccc(NC(=O)COC(=O)c2cc(C)n(C3CC3)c2C)c1 | 9.7 (≈ 29.7 µM) |
| O=C(O)[C@@H]1Cc2ccccc2N1 | 6.6 (≈ 40.4 µM) |
| CCCCn1cnc2c(oc3ccccc32)c1=O | > 36.3 |
| COC(=O)C1(NC(=O)NC2CCCCC2)CCCCC1 | > 42.4 |

| Structure (SMILES) | solubility kinetic [µg/mL] |
| --- | --- |
| Cc1ccc(CNC(=O)CN2C(=O)c3ccccc3S2(=O)=O)cc1 | 12.5 (≈ 36.3 µM) |
| CCOn1c(=O)c(-c2ccccc2)[n+]([O-])c2ccccc21 | > 42.3 |
| COc1ccccc1NC(=O)c1cc(OC)c(OC)cc1[N+](=O)[O-] | > 49.8 |
| COc1ccc2cc(C(=O)NCCc3ccccc3)[nH]c2c1 | < 0.3 |
| O=C(Nc1ccc2c(c1)OCCO2)c1cccc(Cl)c1 | 36.9 (≈ 127 µM) |
| O=S1(=O)CCN(CCc2c[nH]c3ccccc23)CC1 | 38.2 (≈ 137 µM) |
| CCOC(=O)/C(C#N)=C1/C=C(C)c2ccccc2N1 | 0.4 (≈ 1.57 µM) |
| CC(C)(C)c1ccc(COn2ccnc2)cc1 | 27.1 (≈ 118 µM) |
| Cc1cccc(OCC(=O)NCC(c2ccco2)N2CCCC2)c1 (stereo not given) | > 49.3 |
| O=C(Cc1ccc([N+](=O)[O-])cc1)Nc1ccc(Br)cn1 | 2.4 (≈ 7.14 µM) |
| O=C(CSCc1ccc(Cl)cc1)Nc1cccc(C(=O)O)c1 | > 50.4 |
| COCCCN(CC(=O)Nc1ccc(F)cc1)S(=O)(=O)c1cccs1 | > 58 |
| Cc1ccc(NC(=O)Cc2ccsc2)cc1S(=O)(=O)N1CCOCC1 | > 57.1 |
| CSc1nc(=S)n(-c2ccccc2)c(C)c1C(C)=O | 41.7 (≈ 144 µM) |
| Cc1ccc(NC(=S)NCCSc2ccc(Cl)cc2)cc1 | < 0.4 |
| COC(=O)[C@H](C)NC(=O)Nc1cccc(Br)c1 | > 45.2 |
| Cc1ccc(S(=O)(=O)NCCNc2ccc([N+](=O)[O-])cc2)cc1 | 32.8 (≈ 97.8 µM) |
| COc1ccc(NC(=O)C(c2ccc(Cl)cc2)C(C)C)cn1 (stereo not given) | 13.5 (≈ 42.3 µM) |
| O=C(Nc1cccc(Cl)c1)Nc1c[nH]c(=O)[nH]c1=O | 3.4 (≈ 12.1 µM) |
| CCC(=NCc1ccco1)c1c(O)n(-c2ccccc2C)c(=O)[nH]c1=O | > 53 |
| Brc1cnc2ccccc2c1N1CCCCC1 | 1.2 (≈ 4.12 µM) |
| O=[N+]([O-])c1ccc(-c2nc(NCC3CCCO3)c3ccccc3n2)cc1 (stereo not given) | 0.6 (≈ 1.71 µM) |
| O=C(COC(=O)Cc1ccccc1[N+](=O)[O-])NCC1CCCCC1 | 10.8 (≈ 32.3 µM) |
| Cc1cccc(C)c1NC(=S)NCCSc1ccc(Cl)cc1 | 3.3 (≈ 9.4 µM) |

| Structure (SMILES) | solubility kinetic [µg/mL] |
| --- | --- |
| CCC1(c2ccc(F)cc2)NC(=O)N(CC(=O)Nc2ccc3c(c2)OCCO3)C1=O (stereo not given) | 16 (≈ 38.7 µM) |
| O=C(Nc1ccc(NC(=O)C2CC2)cn1)c1ccccc1 | 41.6 (≈ 148 µM) |
| Cc1cc(SC2CCOC2=O)nc2ccccc12 (stereo not given) | 35.5 (≈ 137 µM) |
| Cc1cc(C(=O)NCc2ccc3c(c2)OCO3)c(C)o1 | > 41 |
| CCCC(=O)Nc1ccc(OCC(O)CNC(C)C)c(C(C)=O)c1.Cl (stereo not given) | > 55.9 |
| CCOC(=O)C(=CNc1cscc1S(=O)(=O)C(C)C)C(=O)OCC | 38.9 (≈ 104 µM) |
| CCC(CC)NC(=O)CO/N=C/c1ccc(Cl)cc1Cl | 3 (≈ 9.46 µM) |
| CN1CCN(C(=O)c2ccccc2NC(=O)c2ccccc2)CC1 | > 48.5 |
| Cc1ccccc1C(=O)NCC(=O)NC1CC1 | > 34.8 |
| Cc1ccc(C(=O)N2CCN(c3ncnc4c(C)csc34)CC2)cc1 | 4.3 (≈ 12.2 µM) |
| COc1ccc(CN2C(=O)C(C)=C(C)C2OC)cc1 (stereo not given) | > 39.2 |
| N#Cc1c(/N=C/c2cccnc2)sc2c1CCCC2 | 7.5 (≈ 28.1 µM) |
| Cc1ccc(SCCC(=O)N/N=C/c2cccnc2)cc1 | > 44.9 |
| O=C(COc1ccccc1)NS(=O)(=O)c1ccccc1 | 38.1 (≈ 131 µM) |
| O=C(O)CC/C(=N/NC(=O)CNC(=O)Cc1ccccc1)c1ccccc1 | > 55.1 |
| CC(=O)Nc1ccc(S(=O)(=O)N[C@@H](C)C(=O)OCC(=O)c2ccc(C)cc2)cc1 | 37.7 (≈ 90.1 µM) |
| NC(=O)c1ccsc1NC(=O)CN1C(=O)NC2(CCCC2)C1=O | > 50.5 |
| O=C(Cc1c(F)cccc1Cl)N1CCOCC1 | > 38.7 |
| O=C(CCOc1ccccc1)Nc1ccccc1F | 37.4 (≈ 144 µM) |
| CN(C)C(=O)C1CCC(=O)N1Cc1cccs1 (stereo not given) | > 37.8 |
| Cn1cc(C(=O)OCC(=O)NC2CCCCC2)c2ccccc21 | 4.8 (≈ 15.3 µM) |
| Cc1ccc(S(=O)(=O)N2CCN(C(=O)COC(=O)c3cncc(Br)c3)CC2)c(C)c1 | 5.3 (≈ 10.7 µM) |
| CCc1sc(C(=O)Nc2nccs2)cc1C | 3.6 (≈ 14.3 µM) |
| Cc1nc(C(F)(F)F)ccc1C(=O)Nc1ccccc1N1CCOCC1 | 50.8 (≈ 139 µM) |

| Structure (SMILES) | solubility kinetic [µg/mL] |
| --- | --- |
| Cc1cc(OC(C)C(=O)NCC2CCCO2)cc(C)c1Cl (stereo not given) | 40.7 (≈ 131 µM) |
| CNc1nc(-c2c(C)[nH]c3ccc(OC)cc23)cs1 | 31.8 (≈ 116 µM) |
| C=CCNC(=S)/N=c1/ccccn1CC | 28.7 (≈ 130 µM) |
| CCN(CCO)c1nc(N2CCCCC2)c2cnn(C)c2n1 | > 45.7 |
| CCOc1ccc(-n2c(=O)c3ccccc3c3ccccc3c2=O)cc1 | 18 (≈ 52.4 µM) |
| CC1CCCCC12NC(=O)N(CC(=O)c1ccc(Cl)s1)C2=O (stereo not given) | 8.5 (≈ 24.9 µM) |
| O=C(Cc1ccc([N+](=O)[O-])cc1)N1CCN(Cc2ccc3c(c2)OCO3)CC1 | 46.4 (≈ 121 µM) |
| Cc1cccc(C(=O)OCC(=O)NC23CC4CC(CC(C4)C2)C3)c1O | 8.9 (≈ 25.9 µM) |
| COc1ccc(Cl)cc1NC(=O)Cn1c(C)csc1=O | 18.3 (≈ 58.5 µM) |
| Cc1ccc2nc(Nc3ccccc3)c(C=O)c(=O)n2c1 | 1.5 (≈ 5.37 µM) |
| O=C(CCC(=O)c1ccccc1)Nc1ccccc1OC(F)F | > 47.9 |
| O=C(NC1CCN(C(=O)c2cccs2)CC1)c1ccccc1 | 46.1 (≈ 147 µM) |
| CSCc1ccc(C(=O)NC(C)c2ccc(-n3ccnc3)cc2)cc1 (stereo not given) | 42.1 (≈ 120 µM) |
| Cc1ccc(NC(=O)c2cccs2)cc1NC(=O)c1ccc(F)cc1 | 2 (≈ 5.64 µM) |
| CCOC(=O)C1CCCN(C(=O)COC(=O)c2cccs2)C1 (stereo not given) | 47.6 (≈ 146 µM) |
| CN(C)CCCNC(=O)N1c2ccccc2C=Cc2ccccc21.Cl | > 53.7 |
| O=c1c2[nH]c3ccc(F)cc3c2ncn1Cc1ccncc1 | 3.3 (≈ 11.2 µM) |
| Cc1cc(CNC(=O)c2cccnc2Cl)c2ccccc2n1 | 39.1 (≈ 125 µM) |
| CCCn1nc(C(=O)N2CCN(c3ccccn3)CC2)c2ccccc2c1=O | > 56.6 |
| O=C(O)C(=O)O.c1ccc(COc2cccc(CN3CCCCC3)c2)cc1 | 46.2 |
| CC(C)C(=O)OCC(=O)NCc1ccccc1Cl | 37.6 (≈ 139 µM) |
| O=C(Nc1cc(C(F)(F)F)ccc1N1CCOCC1)c1cnccn1 | 1.1 (≈ 3.12 µM) |
| O=C(NCC1CC1(Cl)Cl)Nc1ccc(Cl)c(Cl)c1 (stereo not given) | 9.1 (≈ 27.7 µM) |
| COc1ccc(CCN2C(=O)CSC2=S)cc1OC | 6.1 (≈ 20.5 µM) |
